Like-named read-outs stand apart in the source and are kept apart here.
Assays:
[1] = test system: SCLC cell line H82; experiment: H82 cell proliferation with subtype-selective mAChR antagonists; assay type: cell-based, human
Experimental: (§1) For in vitro cell proliferation assays, cells were suspended at a concentration of 50,000 cells/ml and pipetted up and down to break up cell clumps. 100 μl cell suspension was added to each well of a 96-well plate. 100 μl darifenacin at concentrations of 2×10^−5, 2×10^−6, 2×10^−7, 2×10^−8, 2×10^−9 M and vehicle control were then added to wells. Every three days, half the volume of the media was changed and at 0, 3, 6, 9 and 12 days, cell number was determined with the Cell-Titer Blue reagent (Promega, Madison Wis.) which measures the production of the fluorescent product of resorufin from resazurin by metabolically active cells.

[2] = test system: H82 cells; experiment: H82 SCLC tumor growth in nude mice, subcutaneous minipump; assay type: in vivo, mouse
Experimental: Mice (NU/NU, Charles River Laboratories) were injected with SCLC tumor cells (NCI-H82 cells, American Type Culture Collection (ATCC); Manassas, Va.), treated with drug and tumor growth monitored. The H82 cells express M3 muscarininc receptor (see Song et al., Cancer Res. 63:214-21, 2003). Nude mice, 5-7 weeks old were housed in a pathogen-free room in microisolators with autoclaved bedding, and fed autoclaved rodent chow and water.
H82 cells were first grown in RPMI-1640+ITS (insulin (5 μg/ml), transferrin (5 μg/ml), sodium selenite (5 ng/ml)). Cells were collected, centrifuged and resuspended in fresh RPMI-1640+ITS at a concentration of 5×10^6 cell/0.25 ml. Cells were then mixed with an equal volume of matrigel (BD Biosciences) to give a final concentration of 5×10^6 cell/0.5 ml and 0.5 ml of this cell suspension was then injected subcutaneously into the right flank of each mouse.
(§2) Tumors were allowed to grow for one week, then drug administration was initiated and continued for the next 4 weeks. Drugs were administered by subcutaneously-implanted osmotic minipumps (Alzet model# 2004). Atropine and darifenacin were dissolved in 50% DMSO/50% phosphate-buffered saline. Atropine was delivered at a dose of 10 mg/kg per day; darifenacin (Novartis Pharma AG, Basel, Switzerland) was delivered at doses of 0.3, 1.0 and 3.0 mg/kg per day. Control animals received minipumps filled with 50% DMSO/50% phosphate-buffered saline.
(§3) Tumor volume was determined weekly by measuring with calipers (volume=height×width×depth). Mice were euthanized after 4 weeks of drug administration. 10 animals were used per group. At sacrifice tumors were removed and weighed. Part of the tumor was fixed for histologic examination of tumor morphology and part was frozen for RNA and protein analyses.

[3] = plasma darifenacin concentration in nude mice; assay type: in vivo, mouse; conditions: s.c. minipump; for concentration at 4 weeks: mouse, plasma, sc
Experimental: FIG. 4 is a bar graph showing the relation of nude mouse darifenacin dose to concentration of darifenacin achieved in mouse blood. Dashed lines show concentration of darifenacin obtained in humans treated with 30 mg extended release darifenacin per day.
as §2
Thus significant reduction in SCLC growth can be achieved at clinically relevant doses of M3 mAChR antagonists.

[4] = test system: Akt phosphorylation; experiment: Akt phosphorylation in tumors removed from treated mice; assay type: in vivo, mouse; conditions: tumors removed from darifenacin-treated mice
Experimental: as §3
(§4) ACh content of control tumor samples was 420±110 pmol/g which, corresponds to 4×10^−7 M, assuming uniform distribution in the tumor. These levels of ACh are high enough to increase MAPK phosphorylation.

[5] = test system: MAPK phosphorylation; experiment: MAPK phosphorylation in tumors removed from treated mice; assay type: in vivo, mouse; conditions: tumors removed from darifenacin-treated mice
Experimental: as §3, §4

[6] = test system: SCLC cell lines; experiment: in vitro cell proliferation assay (Cell-Titer Blue); assay type: cell-based, human
Experimental: SCLC cell lines (HA-E, SV-E, LV-E, BK-T, HG-E, AD-A, LD-T, H69 (HTB-119), H82 (HTB-175), H146 (HTB 173), H187 (CRL-5804), H524 (CRL-5831), H526 (CRL-5811), H740 (CRL-5840), H841 (CRL-5845), H1048 (CRL-5853), H1105 (CRL-5856), H1417 (CRL-5869), H1694 (CRL-5888). H1836 (CRL-5898), H1876 (CRL-5902), H2029 (CRL-5913), H2195 (CRL-5931), and H2198 (CRL-5933)), were grown in RPMI 1640 medium (Mediatech, Herndon Va.) supplemented with 0-10% fetal bovine serum (Hyclone, Logan, Utah) and ITS (5 μg/ml insulin, 5 μg/ml transferrin, 5 ng/ml sodium selenite (BD Biosciences, San Jose, Calif.)) plus 100 units/ml penicillin, […] streptomycin, and […] amphotericin (Invitrogen, Carlsbad Calif.) at 37° C. in a humidified 5% CO2 atmosphere.
as §1

[7] = overall animal weight of treated nude mice; assay type: in vivo, mouse; conditions: darifenacin treatment
Experimental: as §2

[8] = test system: H82 SCLC cells; conditions: H82 SCLC cells incubated with nicotine; FIG. 6
Experimental: H82 SCLC cells were incubated with nicotine for the times shown and secretion of ACh into the medium was measured.

[9] = test system: lung, pancreas and esophagus; conditions: nicotine for 3 weeks vs control mice
Experimental: At the end of 3 weeks, bromodeoxy uridine (BrdU) will be injected ip, 50 mg/kg, then 24 hours later mice will be sacrificed and selected tissues removed to measure cell proliferation. Tissues removed will include lung, pancreas and esophagus, tumors of which are associated with smoking. Tissues will be sectioned and BrdU incorporation into cells determined so as to determine the number of replicating cells per section.

[10] = test system: H82 cells; experiment: H82 tumors in nude mice receiving nicotine (planned); assay type: in vivo, mouse; conditions: nicotine 2.0 mg/kg/day by minipump
Experimental: Nude mice are administered H82 cells as described in Example 3. […] Nicotine (nicotine bitartrate, Sigma) is dissolved in water at a concentration to deliver 2.0 mg/kg/day; and will be administered by a second minipump. Tumor volume will be determined weekly as described in the Examples above, and mice euthanized after 4 weeks of drug administration. At sacrifice tumors are removed and weighed. Part of the tumor can be fixed for histologic examination of tumor morphology and part frozen for RNA and protein analyses.

[11] = up to 10^−5 mol/L, nine days of treatment

C[N+]1(C)CCC(OC(=O)C(c2ccccc2)c2ccccc2)CC1.[I-] [4-DAMP, 4-diphenylacetoxy-N-methylpiperidine methiodide]
H82 cell proliferation ([1]; 10^−9 mol/L to 10^−5 mol/L, after nine days): significantly reduced cell proliferation

CCN(CC)CC1CCCCN1CC(=O)N1c2ccccc2C(=O)Nc2cccnc21 (centres unmarked) [AFDX-1116]
H82 cell proliferation [1, 11]: no detectable effect

Cl.O[Si](CCCN1CCCCC1)(c1ccc(F)cc1)C1CCCCC1 (centres unmarked) [P-F-HHSiD, hexahydro-sila-difenidol hydrochloride, p-fluoro analog]
H82 cell proliferation ([1]; 10^−5 mol/L, after nine days): significantly reduced cell proliferation

CN1[C@@H]2CC[C@H]1C[C@@H](OC(=O)C(CO)c1ccccc1)C2 (some centres unmarked) [atropine]
tumor growth (tumor weight) ([2]; 10 mg/kg per day s.c. minipump, weeks 1-5, FIG. 5): do not reduce or inhibit tumor growth

NC(=O)C(c1ccccc1)(c1ccccc1)[C@@H]1CCN(CCc2ccc3c(c2)CCO3)C1 [darifenacin, (S)-2-{1-[2-(2,3-dihydrobenzofuran-5-yl)ethyl]-3-pyr-rolidinyl}-2,2-diphenyl-acetamide]
concentration at 4 weeks ([3]; 3 mg/kg per day, read-out: average plasma darifenacin concentration at which tumor growth was reduced): 9.4 ± 0.3 ng/mL
concentration at 4 weeks ([3]; FIG. 4, read-out: plasma darifenacin concentrations at which inhibition of tumor growth was achieved): 3 to 10 ng/mL
average plasma darifenacin concentration [3]: ~25 nM
average plasma darifenacin concentration at which tumor growth was reduced [3]: 9.4 ± 0.97 ng/mL
tumor size (volume by calipers) ([2]; 0.3, 1.0 and 3.0 mg/kg per day s.c. minipump, weeks 1-5, FIG. 2): dosewise-reduction
histology of tumor cells compared to controls ([2]; highest dose of darifenacin): larger in size, with increased-cytoplasm and less nuclear molding
inhibition of tumor size, statistics ([2]; largest dose (3.0 mg/kg per day), FIG. 2): statistically significant
tumor weight ([2]; tumors removed and weighed at end of 5 weeks, FIG. 3): significant decrease
Akt phosphorylation in the tumors [4]: no significant effects
levels of MAPK phosphorylation in the tumors [5]: significantly decreased
cell growth in five SCLC cell lines ([6]; 10 μM darifenacin, H187, H1048, H1836, H1876, H520, FIGS. 1A-E): responsive
SCLC cell lines with significantly reduced proliferation ([6]; 20 SCLC cell lines tested): 14 out of 20
proliferation of non-responding cell lines ([6]; cell lines LV-E, AD-A, L-D-T, H69, H1417, H2198): not affected
overall animal weight [7]: No significant effects

CN1CCCC1c1cccnc1 (centres unmarked) [nicotine]
acetylcholine secretion into the medium [8]: stimulates acetylcholine secretion
replicating cells in tissue (BrdU incorporation) [9]: more replicating cells
effect of nicotine on tumor growth [10]: grow faster

CN1CCN(CC(=O)N2c3ccccc3C(=O)Nc3cccnc32)CC1 [pirenzepine]
H82 cell proliferation [1, 11]: no detectable effect

O=C(O[C@H]1C[C@H]2CC[C@@H](C1)[N+]21CCCC1)C(O)(c1ccccc1)c1ccccc1 [trospium]
tumor growth ([2]; stated for nonselective antagonists, no dose or test described): do not reduce or inhibit tumor growth

Source: patent US20090062326A1, “M3 MUSCARINIC RECEPTOR ANTAGONISTS FOR TREATMENT OF M3 MUSCARINIC RECEPTOR-EXPRESSING TUMORS” (priority 2006, published 2009)
